{"source": "patent US8609362B2", "about": "“G-proteins” (Givaudan SA, priority 2002, dated 2013)", "assay_type_in_all_cases": "cell-based", "key": {"[1]": {"tested_on": "G-protein only", "assay": "Fluo-4 calcium assay, G-protein only control (TAS2R43 cell line)", "details": "Gα16gustducin44, ligand 10 μM", "text": "(§1) The following results were obtained:"}, "[2]": {"tested_on": "G-protein only", "assay": "Fluo-4 calcium assay, G-protein only control (TAS2R44 cell line)", "details": "Gα16gustducin44, ligand 10 μM", "text": "as §1"}, "[3]": {"target": "T1, human TAS2R44 (Homo sapiens, UniProt P59538)", "T1 construct": "expressed in transfected cells", "T1 sequence (P59538 1-309)": "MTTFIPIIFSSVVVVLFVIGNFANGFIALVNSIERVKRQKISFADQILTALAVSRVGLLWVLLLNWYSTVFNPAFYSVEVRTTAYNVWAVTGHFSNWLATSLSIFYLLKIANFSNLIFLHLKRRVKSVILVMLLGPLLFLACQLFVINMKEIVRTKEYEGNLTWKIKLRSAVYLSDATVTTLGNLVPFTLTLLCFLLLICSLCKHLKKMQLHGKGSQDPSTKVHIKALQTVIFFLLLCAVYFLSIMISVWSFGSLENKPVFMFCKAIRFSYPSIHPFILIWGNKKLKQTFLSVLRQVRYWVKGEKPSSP", "assay": "Fluo-4 calcium assay, tetracycline-inducible cells stably expressing human TAS2R44 and G16gust44", "details": "ligand 10 μM", "text": "as §1"}, "[4]": {"target": "T2, human TAS2R43 (Homo sapiens, UniProt P59537)", "T2 construct": "expressed in transfected cells", "T2 sequence (P59537 1-309)": "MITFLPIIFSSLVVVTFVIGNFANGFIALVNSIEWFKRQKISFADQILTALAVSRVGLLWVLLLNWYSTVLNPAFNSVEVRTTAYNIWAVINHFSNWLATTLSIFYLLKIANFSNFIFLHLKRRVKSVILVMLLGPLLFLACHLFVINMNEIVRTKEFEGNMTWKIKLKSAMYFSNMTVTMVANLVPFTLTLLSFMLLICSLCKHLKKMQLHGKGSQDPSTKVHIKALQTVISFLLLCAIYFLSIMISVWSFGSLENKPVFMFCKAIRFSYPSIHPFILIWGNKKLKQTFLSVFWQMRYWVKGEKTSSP", "assay": "Fluo-4 calcium assay, tetracycline-inducible cells stably expressing human TAS2R43 and G16gust44", "details": "ligand 10 μM", "text": "as §1"}}}
{"smiles": "COc1cccc2c1cc([N+](=O)[O-])c1c(C(=O)O)cc3c(c12)OCO3", "note": "[aristolochic acid]", "values": [{"measurement": "increase in mean fluorescence over baseline following ligand addition", "setting": "[1]", "result": 3955, "unit": "RFUs"}, {"measurement": "increase in mean fluorescence over baseline following ligand addition", "setting": "[2]", "result": 5700, "unit": "RFUs"}, {"measurement": "increase in mean fluorescence over baseline following ligand addition", "setting": "[3]; G-protein + human TAS2R44, Gα16gustducin44", "result": 17254, "unit": "RFUs"}, {"measurement": "fluorescence signal (in words)", "setting": "[3]; HEK293 T-Rex cells, TAS2R44, G16-gustducin 44", "result": "robust fluorescence signal"}, {"measurement": "increase in mean fluorescence over baseline following ligand addition", "setting": "[4]; G-protein + human TAS2R43, Gα16gustducin44", "result": 26766, "unit": "RFUs"}, {"measurement": "fluorescence signal (in words)", "setting": "[4]; HEK293 T-Rex cells, TAS2R43, G16-gustducin 44", "result": "robust fluorescence signal"}]}
